Reference: patent publication EP1285919A1, “C10 Carbonate substituted taxanes as antitumor agents” (Florida State University Research Foundation, Inc., priority 2001, dated 2003)
Like-named read-outs stand apart in the source and are kept apart here.

How the values were obtained:
[1] = system: NCI-H1299 (H1299) carcinoma
Method: (§1) In Vivo Evaluation of Antitumor Compounds Against Human Lung Carcinoma Xenografts
(§2) The compounds were prepared in the manner as described for Solution 2 of Example 10. Taxol (paclitaxel, Bristol Meyers Squibb), used as a control, was obtained as the marketed pharmaceutical drug.
(§3) Taxol itself was given as a split i.v. dose of 36 mg/kg, with the two 18 mg/kg doses separated by one hour. Vehicle control animals were dosed twice intravenously with half the total volume being given separated by one hour. The study was terminated on Day 60.
(§4) The results are summarized in Table 1 and include mean days of survival (MDS), number of toxic deaths, number of survivors, number of complete or partial responses, and number with stable disease. The mean days of survival is the number of days after which a SKMES neoplasm reached a size of 1.5 g and the animal was euthanized. A complete response is obtained if the tumor is not palpable at the end of the study. A partial response is obtained if the tumor shrinks to a size smaller than its size on Day 1 of the study.
(§5) A tumor scoring system was designed to provide a more quantitative ranking of efficacy (therapeutic potential) among the antitumor agents evaluated against the different human solid tumor xenografts. Each mouse in a study was given a score of from 1 to 10 at the end of the study. The scores can be summarized as follows:
(§6) The individual score for each mouse was averaged into a mean score for each treatment group. […]
The treatment protocol for the H1299 test was identical to the SK-MES test protocol. […]

[2] = system: SKMES Human Lung Carcinoma Xenograft
Method: The compound was administered as a single bolus by the oral route in a study to investigate the efficacy of this compound against the SKMES human lung cancer xenograft.
Female Nu/Nu mice (6-8 weeks of age; implanted with 1 mm^3 SKMES lung carcinoma fragments in the flank) were sorted into four treatment groups of six mice each. SKMES size ranges and group mean SKMES size ranges were 126-448 mg and 238-241 mg, respectively. […] Treatments were administered as a single oral bolus on Day 1, and the study was terminated on Day 60.
as §4, with “Table 13” for “Table 1”, “of 2.0” for “of 1.5”
The total response rate was 100% with four complete responses and two partial responses. The total response rate is defined as the percentage of evaluable animals (excluding deaths due to procedure or toxicity) in a group that experience complete or partial responses at the termination of the study.

SK-MES carcinoma = system: SK-MES carcinoma
Method: as §1, §2, §3, §4, §5, §6

HCT116 = assay: In vitro cytotoxicity, cell colony formation assay; assay type: cell-based; conditions: read-out: IN VITRO ID 50
Method: In Vitro cytotoxicity measured by the cell colony formation assay
Four hundred cells (HCT116) were plated in 60 mm Petri dishes containing 2.7 mL of medium (modified McCoy's 5a medium containing 10% fetal bovine serum and 100 units/mL penicillin and […] streptomycin). The cells were incubated in a CO2 incubator at 37 °C for 5 h for attachment to the bottom of Petri dishes. The compounds identified in Example 2 were made up fresh in medium at ten times the final concentration, and then 0.3 mL of this stock solution was added to the 2.7 mL of medium in the dish. The cells were then incubated with drugs for 72 h at 37 ° C. At the end of incubation the drug-containing media were decanted, the dishes were rinsed with 4 mL of Hank's Balance Salt Solution (HBSS), 5 mL of fresh medium was added, and the dishes were returned to the incubator for colony formation. The cell colonies were counted using a colony counter after incubation for 7 days.

[3] = system: A375 Human Melanoma Xenografts; assay: In vivo evaluation against A375 melanoma xenografts
Method: In Vivo Evaluation of Antitumor Compounds Against A375 Human Melanoma Xenografts
Antitumor compounds were prepared in a vehicle of 5% ethanol, 5% Cremophor and 90% isotonic saline in the manner as described for Solution 1 of Example 10. Taxol (paclitaxel; Bristol Meyers Squibb) and Taxotere (docetaxel; Rhône-Poulenc Rorer) were obtained as the marketed pharmaceutical drugs. The dosing volume was 0.3 ml per 20 g mouse.
Female NCr-nude mice were implanted subcutaneously with 1 mm^3 A375 melanoma fragments in the flank were sorted into treatment groups of six mice each, except the Taxotere treatment group which was a group of seven mice. […] Dosing was initiated on Day 1. The antitumor compounds were given i.v. at an estimated maximum tolerated dose (MTD) appropriate for each agent on a qd x 1 schedule (single administration of compound). The i.v. taxol was given on the qd x 1 schedule as two split doses (one hour between) of 12 mg/kg per split dose (total dose = 24 mg/kg). Taxol was also administered i.p. on a qd x 5 schedule at a daily dose of 18 mg/kg. Taxotere was given i.v. on a qd x 1 schedule at a dose of 70 mg/kg. The vehicle was administered i.v. to control mice in Group 1 on the qd x 1 schedule. The study was terminated on Day 60. Treatment groups are detailed in Table 7.
as §4, with “Table 8” for “Table 1”, “a” for “a SKMES”, “of 2.0” for “of 1.5”, “complete” for “complete response is obtained if the tumor is not palpable at the end of the study. A partial”

[4] = system: A2780 Human Ovarian Carcinoma Xenografts; assay: In vivo evaluation against A2780 ovarian carcinoma xenografts; parameters: species or system NCr-nude mice
Method: In Vivo Evaluation of Antitumor Compounds Against A2780 Human Ovarian Carcinoma Xenografts
The A2780 group mean size range was 237-243 mg. Dosing was initiated on Day 1. […] Treatment groups are detailed in Table 5.

[5] = system: VM46 Human Colon Carcinoma; assay: In vivo evaluation against VM46 colon carcinoma xenografts; parameters: species or system NCr-nude mice
Method: In Vivo Evaluation of Antitumor Compounds Against VM46 Human Colon Carcinoma
The VM46 tumor group mean size range was 181-188 mg. Dosing was initiated on Day 1. […] Taxotere was given i.v. at a dose of 70 mg/kg on a qd x 1 schedule. […] The study was terminated on Day 64. Treatment groups are detailed in Table 11.

[6] = number of mice of six, i.v. split dose qd x 1, Taxol 36 mg/kg, 1755 49 mg/kg
[7] = 1755 49 mg/kg single oral bolus, six mice
[8] = Group 4: 49 mg/kg single oral bolus Day 1, 6 mice, study to Day 60
[9] = HCT116, 72 h with drug, colonies counted after 7 days, concentration producing 50% inhibition of colony formation
[10] = Group 5: 70 mg/kg i.v. qd x 1, 7 mice, study to Day 60
[11] = i.v. qd x 1, Taxol 24 mg/kg, Taxotere 70 mg/kg
[12] = i.v. qd x 1, Taxol 24 mg/kg, Taxotere 70 mg/kg, 2.0 g cut-off
[13] = Group 5: 70 mg/kg i.v. qd x 1, group of six mice, study to Day 60
[14] = Group 5: 70 mg/kg i.v. qd x 1, 6 mice, study to Day 64

With `CCOC(=O)OC1C(=O)C2(C)C(O)CC3OCC3(OC(C)=O)C2C(OC(=O)c2ccccc2)C2(O)CC(OC(=O)C(O)C(NC(=O)OC(C)(C)C)c3cccs3)C(C)=C1C2(C)C` (stereo not shown) [Compound 1755, 3'-Desphenyl-3'-(2-thienyl)-10-ethoxycarbonyl-10-deacetyl taxotere] the “Partial Response” value ([1]; number of mice of six) was 0, the “Stable Disease” value ([1]; number of mice of six) was 1 and the Survivors ([1]; number of mice of six) was 4. For the same compound, the “Toxic Deaths” value [1, 6] was 2, the “Mean Score” value ([1]; tumor score 1 to 10 per mouse, averaged per group) was 5.8 ± 2 and the total response rate ([2]; 1755 49 mg/kg single oral bolus Day 1, six mice, study ended Day 60) was 100%. For the same compound, the complete responses [2, 7] was “four”, the partial responses [2, 7] was “two” and the “% Total Response” value [2, 8] was 100%. The “Complete Response” value [2, 8] was 4, the “Partial Response” value [2, 8] was 2 and the “Stable Disease” value [2, 8] was 0. The Survivors [2, 8] was 6, the “Toxic Deaths” value [2, 8] was 0 and the tolerability (SK-MES carcinoma; 1755 49 mg/kg i.v.) was “well tolerated”. The “Toxic Deaths” value (SK-MES carcinoma; [6]) was 0, the Survivors (SK-MES carcinoma; number of mice of six, study ended Day 60) was 6 and the “Stable Disease” value (SK-MES carcinoma; number of mice of six, tumor below 1.5 g at end of study) was 1. For the same compound, the “Partial Response” value (SK-MES carcinoma; number of mice of six, tumor smaller than on Day 1) was 0, the “Mean Score” value (SK-MES carcinoma; tumor score 1 to 10 per mouse, averaged per group (10 = complete response)) was 9.2 ± 0.8 and the IC50 (HCT116; [9]) was under 1 nM.

Work on `CCOC(=O)OC1C(=O)C2(C)C(O)CC3OCC3(OC(C)=O)C2C(OC(=O)c2ccccc2)C2(O)CC(OC(=O)C(O)C(NC(=O)OC(C)(C)C)C3CC3)C(C)=C1C2(C)C` (stereo not shown) [Compound 5171] yielded an IC50 (HCT116; [9]) of under 1 nM.

Compound `CCOC(=O)OC1C(=O)C2(C)C(O)CC3OCC3(OC(C)=O)C2C(OC(=O)c2ccccc2)C2(O)CC(OC(=O)C(O)C(NC(=O)C(C)C)c3ccco3)C(C)=C1C2(C)C` (stereo not shown) [Compound 6466] has an IC50 (HCT116; [9]) of under 10 nM.

With `CC(=O)O[C@@]12CO[C@@H]1C[C@H](O)[C@@]1(C)C(=O)[C@H](O)C3=C(C)[C@@H](OC(=O)[C@H](O)[C@@H](NC(=O)OC(C)(C)C)c4ccccc4)C[C@@](O)([C@@H](OC(=O)c4ccccc4)[C@H]21)C3(C)C` [Docetaxel, docetaxel] the “MDS (n)” value ([3]; Group 5: 70 mg/kg i.v. qd x 1, 7 mice, n=7, 2.0 g endpoint, study to Day 60) was 21.5 ± 0.5(7) days, the “Complete Response” value [3, 10] was 0 and the “Mean Score” value [3, 10] was 2 ± 0. For the same compound, the “Partial Response” value [3, 10] was 0, the “Stable Disease” value [3, 10] was 0 and the Survivors [3, 10] was 0. The “Toxic Deaths” value [3, 10] was 0, the “survival extension compared to Group 1 controls” value [3, 11] was 49% and the MDS [3, 12] was 21.5 days. The IC50 (HCT116; Homo sapiens, HCT-116) was 0.6 nM, the “MDS (n)” value ([4]; Group 5: 70 mg/kg i.v. qd x 1, group of six mice, n=5, 2.0 g endpoint, study to Day 60) was 27.4 ± 3.5 (5) days and the “Complete Response” value [4, 13] was 0. The “Mean Score” value [4, 13] was 2.5 ± 0.3, the “Partial Response” value [4, 13] was 0 and the “Stable Disease” value [4, 13] was 0. For the same compound, the Survivors [4, 13] was 0, the “Toxic Deaths” value [4, 13] was 0 and the “increase in survival / survival extension compared to Group 1 controls” value [4, 11] was 134%. For the same compound, the MDS [4, 12] was 27.4 days, the “MDS (n)” value ([5]; Group 5: 70 mg/kg i.v. qd x 1, 6 mice, n=6, 1.5 g endpoint, study to Day 64) was 45.3 ± 3.6(6) days and the “Complete Response” value [5, 14] was 0. The “Mean Score” value [5, 14] was 2 ± 0, the “Partial Response” value [5, 14] was 0 and the “Stable Disease” value [5, 14] was 0. The “Toxic Deaths” value [5, 14] was 0 and the MDS ([5]; i.v. qd x 1, Taxol 24 mg/kg (four mice), Taxotere 70 mg/kg, 1.5 g endpoint) was 45.3 days.
